From PMC13483160, “Reorganization of Innate Immune Cell Lipid Profiles by Bioinspired Meroterpenoids to Limit Inflammation” (Advanced Science, 2026)

Target: T1, 5-lipoxygenase (ALOX5) (Homo sapiens, UniProt P09917)
T1 sequence (P09917 1-674): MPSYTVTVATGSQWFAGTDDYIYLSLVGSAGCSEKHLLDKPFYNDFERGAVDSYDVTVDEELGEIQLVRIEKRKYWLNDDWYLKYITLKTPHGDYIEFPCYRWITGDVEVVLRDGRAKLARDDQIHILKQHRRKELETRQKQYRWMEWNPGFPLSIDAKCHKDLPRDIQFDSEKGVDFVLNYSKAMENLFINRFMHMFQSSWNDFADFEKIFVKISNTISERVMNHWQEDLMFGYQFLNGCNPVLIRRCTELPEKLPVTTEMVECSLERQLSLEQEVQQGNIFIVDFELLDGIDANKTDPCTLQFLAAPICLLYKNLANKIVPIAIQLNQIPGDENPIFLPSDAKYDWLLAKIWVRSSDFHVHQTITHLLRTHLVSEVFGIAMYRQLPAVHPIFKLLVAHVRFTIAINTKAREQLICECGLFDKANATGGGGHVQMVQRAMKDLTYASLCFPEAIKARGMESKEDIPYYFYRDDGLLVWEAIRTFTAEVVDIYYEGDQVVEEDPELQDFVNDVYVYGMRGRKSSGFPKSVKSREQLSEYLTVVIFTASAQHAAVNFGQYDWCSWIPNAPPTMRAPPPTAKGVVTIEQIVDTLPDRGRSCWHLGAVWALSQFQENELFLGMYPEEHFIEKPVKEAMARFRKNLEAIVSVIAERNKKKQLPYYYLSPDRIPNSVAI
Test: enzyme kinetics of human recombinant ALOX5 at varying AA ([…])
Format: biochemical

With CCCCC/C=C\C/C=C\C/C=C\C/C=C\CCCC(=O)O [AA/20:4, 5Z,8Z,11Z,14Z‐eicosatetraenoic acid] the “enzyme kinetics of human recombinant ALOX5 at varying AA (3-300 μM)” value was “Lineweaver–Burk plot generated from activity data of human recombinant ALOX5”.
